Broadly, the EC50 is the midpoint of the concentration-response curve.

Molecules are shown by their SMILES.

Series [1] is described as follows: Microsomal stability (rat). Format: in vitro ADME. The following applies: rat microsomes.
The nature of series [2]: PAMPA permeability. Format: in vitro ADME. The note with it: PAMPA.
Series [3] has as its system Asexual parasites of P. falciparum strain 3D7. The series can be described thus: In vitro drug activity on asexual parasites (SYBR Green assay). Type of series: cell-based, Plasmodium falciparum. The note with it: P. falciparum 3D7 asexual parasites, 72 h, SYBR Green. In short, it runs like this: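 SYBR Green I fluorescence (ex 490, em 520 nm) was read after freeze-thaw lysis and 30 min staining at room temperature. Before that, drug-treated cultures (0.5% parasitemia, 2% hematocrit, DMSO ≤0.5%) were incubated 72 h, in duplicate.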

A short description of series [4]: Solubility at pH 7.4. Type of series: physicochemical.
Series [5] relates to Stage III-V gametocytes (blood stage P. falciparum parasites). The series can be described thus: In vitro drug activity on gametocytes (AlamarBlue viability assay). The note with it: P. falciparum stage III-V gametocytes, 72 h incubation, AlamarBlue; for EC50: read-out: Gametocyte EC50. Format: cell-based, Plasmodium falciparum. The procedure, abridged:
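Viability was measured by AlamarBlue fluorescence (Ex 525/Em 598 nm) after 24 h dye incubation following 72 h compound exposure at 37° C, 5% CO2. Gametocytes, stage III–V from strains 3D7, HB3 and Dd2, were NAG/Percoll-enriched and plated at 20,000 cells/well.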
(In general: Resazurin is reduced to fluorescent resorufin, in cell work by metabolically active cells.)

Consider `CS(=O)(=O)c1ccc(-n2c(=O)ccc3cnc4ccc(-c5ccc(Cl)c(N)c5)cc4c32)cc1` [Compound 28], for which the “Microsomal Stability (rat) T1/2” value in series [1] is given as over 30.0 min. For the same compound, in series [2], the “PAMPA Permeability (×10^6 cm/s)” value is 33.9 ×10^6 cm/s. The EC50 in series [3] worked out at 16.2 nM; in series [5], 95.3 nM. The “Sol @ pH 7.4 (ug/mL)” value in series [4] was under 1.0 ug/mL.
The matching figures for `CN(C)Cc1ccc(-c2ccc3ncc4ccc(=O)n(-c5ccc(S(C)(=O)=O)cc5)c4c3c2)cc1` [Compound 30]: over 30.0 min, 677.9 ×10^6 cm/s, 118 nM, 336 nM and 30.4 ug/mL.
For the compound `COc1cc(-c2ccc3ncc4ccc(=O)n(-c5ccc(S(C)(=O)=O)cc5)c4c3c2)ccc1Cl` [Compound 31], the “Microsomal Stability (rat) T1/2” value in series [1] was over 30.0 min. In series [2], the “PAMPA Permeability (×10^6 cm/s)” value is on record as 40.7 ×10^6 cm/s. Further, the EC50 in series [3] is 33.5 nM; in series [5] it was 222 nM. Moreover, the “Sol @ pH 7.4 (ug/mL)” value in series [4] was under 1.0 ug/mL.
Taken in the same sequence, the figures for `CS(=O)(=O)c1ccc(-n2c(=O)ccc3cnc4ccc(-c5ccc(Cl)c(C#N)c5)cc4c32)cc1` [Compound 32] were over 30.0 min, 39.6 ×10^6 cm/s, 85.5 nM, 92.8 nM and under 1.0 ug/mL.
Taken in the same sequence, the figures for `O=c1ccc2cnc3ccc(-c4ccc(Cl)cc4)cc3c2n1-c1ccc(S(=O)(=O)N2CCOCC2)cc1` [Compound 38] were 12.7 min, 32.5 ×10^6 cm/s, 220 nM, 187 nM and under 1.0 ug/mL.
The matching figures for `NS(=O)(=O)c1ccc(-n2c(=O)ccc3cnc4ccc(-c5ccc(Cl)cc5)cc4c32)cc1` [Compound 40]: over 30.0 min, <1.0 ×10^6 cm/s, 14.6 nM, 51.7 nM and under 1.0 ug/mL.
`CN(C)S(=O)(=O)c1ccc(-n2c(=O)ccc3cnc4ccc(-c5ccc(Cl)cc5)cc4c32)cc1` [Compound 42]: in series [1], the “Microsomal Stability (rat) T1/2” value worked out at 4.9 min. In series [2], the “PAMPA Permeability (×10^6 cm/s)” value is recorded as 97.4 ×10^6 cm/s. Besides, the EC50 is 37.4 nM in series [3] and 118 nM in series [5]. Besides, in series [4], the “Sol @ pH 7.4 (ug/mL)” value was under 1.0 ug/mL.
In the case of `CS(=O)(=O)c1ccc(-n2c(=O)ccc3cnc4ccc(-c5ccc(Cl)c(C(=O)O)c5)cc4c32)cc1` [Compound 43], the “Microsomal Stability (rat) T1/2” value in series [1] is on record as over 30.0 min. For the same compound, the “PAMPA Permeability (×10^6 cm/s)” value in series [2] was <1.0 ×10^6 cm/s. Moreover, it took 43800 nM to reach a half-maximal effect in series [3] (EC50). Also, the “Sol @ pH 7.4 (ug/mL)” value in series [4] is on record as over 74.0 ug/mL. In addition, the “Gametocyte EC50 (nM)” value in series [5] is “Inactive”.
Consider `CN(C)C=NS(=O)(=O)c1ccc(-n2c(=O)ccc3cnc4ccc(-c5ccc(Cl)cc5)cc4c32)cc1` [Compound 44], for which the “Microsomal Stability (rat) T1/2” value in series [1] is given as 4.6 min. The “PAMPA Permeability (×10^6 cm/s)” value in series [2] is on record as 34.8 ×10^6 cm/s. In addition, the results for the EC50 in series [3] and in series [5] were 31.2 nM and 135 nM, respectively. In series [4], the “Sol @ pH 7.4 (ug/mL)” value was under 1.0 ug/mL.
Taken in the same sequence, the figures for `CS(=O)(=O)c1ccc(-n2c(=O)ccc3cnc4ccc(-c5ccc(Cl)c(N)c5)cc4c32)cc1C(F)(F)F` [Compound 45] were 8.9 min, 144.4 ×10^6 cm/s, 77.8 nM, 209 nM and under 1.0 ug/mL.
As for `CS(=O)(=O)c1ccc(-n2c(=O)ccc3cnc4ccc(-c5ccc(CN)cc5)cc4c32)cc1` [Compound 47], in series [1], the “Microsomal Stability (rat) T1/2” value is on record as over 30.0 min. Moreover, the “PAMPA Permeability (×10^6 cm/s)” value in series [2] is reported as <2.9 ×10^6 cm/s. Also, the figures for the EC50 in series [3] and in series [5] were 66.4 nM and 377 nM, respectively. In addition, the “Sol @ pH 7.4 (ug/mL)” value in series [4] turned out to be 2.1 ug/mL.
Taken in the same sequence, the figures for `Cc1cc(-c2ccc3ncc4ccc(=O)n(-c5ccc(S(C)(=O)=O)cc5)c4c3c2)ccc1Cl` [Compound 48] were over 30.0 min, <1.0 ×10^6 cm/s, 200 nM, 561 nM and under 1.0 ug/mL.
With `COC(=O)c1cc(-c2ccc3ncc4ccc(=O)n(-c5ccc(S(C)(=O)=O)cc5)c4c3c2)ccc1Cl` [Compound 49], in series [1], the “Microsomal Stability (rat) T1/2” value was determined as 4.3 min. In series [2], the “PAMPA Permeability (×10^6 cm/s)” value is given as 235.8 ×10^6 cm/s. Moreover, the EC50 is 3190 nM in series [3] and 1990 nM in series [5]. In addition, in series [4], the “Sol @ pH 7.4 (ug/mL)” value was under 1.0 ug/mL.
The matching figures for `CN(C)C(=O)c1cc(-c2ccc3ncc4ccc(=O)n(-c5ccc(S(C)(=O)=O)cc5)c4c3c2)ccc1Cl` [Compound 50]: 3 min, 164.4 ×10^6 cm/s, 932 nM, 1830 nM and 2.7 ug/mL.
Taken in the same sequence, the figures for `CS(=O)(=O)c1ccc(-n2c(=O)ccc3cnc4ccc(-c5ccc(Cl)c(C(N)=O)c5)cc4c32)cc1` [Compound 51] were over 30.0 min, 43.1 ×10^6 cm/s, 203 nM, 291 nM and 4.3 ug/mL.
For the compound `CS(=O)(=O)c1ccc(-n2c(=O)ccc3cnc4ccc(-c5ccc(Cl)c(C(=O)N6CCOCC6)c5)cc4c32)cc1` [Compound 52], in series [1], the “Microsomal Stability (rat) T1/2” value is listed as under 1.0 min. The “PAMPA Permeability (×10^6 cm/s)” value in series [2] is on record as 200.8 ×10^6 cm/s. For the same compound, the concentration giving a half-maximal response (EC50) in series [3] is 14700 nM; in series [5], 35200 nM. The “Sol @ pH 7.4 (ug/mL)” value in series [4] is listed as 57.2 ug/mL.
The matching figures for `CCNC(=O)c1cc(-c2ccc3ncc4ccc(=O)n(-c5ccc(S(C)(=O)=O)cc5)c4c3c2)ccc1Cl` [Compound 53]: 2.8 min, 115.9 ×10^6 cm/s, 3790 nM, 6850 nM and 9.6 ug/mL.
For the compound `CN(C)Cc1ccc(-c2ccc3ncc4ccc(=O)n(-c5ccc(S(=O)(=O)NC6CC6)cc5)c4c3c2)cc1` [Compound 57], the “Microsomal Stability (rat) T1/2” value in series [1] is over 30.0 min. Moreover, the “PAMPA Permeability (×10^6 cm/s)” value in series [2] is on record as 527.8 ×10^6 cm/s. Moreover, the results for the EC50 in series [3] and in series [5] were 381 nM and 840 nM, respectively. In addition, in series [4], the “Sol @ pH 7.4 (ug/mL)” value is 7.9 ug/mL.
For the compound `C[S+]([O-])c1ccc(-n2c(=O)ccc3cnc4ccc(-c5ccc(Cl)cc5)cc4c32)cc1` (stereo not shown) [Compound 59], the “Microsomal Stability (rat) T1/2” value in series [1] is 12.8 min. The “PAMPA Permeability (×10^6 cm/s)” value in series [2] is <1.00 ×10^6 cm/s. Also, the figures for the EC50 in series [3] and in series [5] were 9.07 nM and 25.4 nM, respectively. For the same compound, the “Sol @ pH 7.4 (ug/mL)” value in series [4] is under 0.10 ug/mL.
On to `CS(=O)(=O)c1ccc(-n2c(=O)ccc3cnc4ccc(-c5cccc(CN)c5)cc4c32)cc1` [Compound 64], for which, in series [1], the “Microsomal Stability (rat) T1/2” value is over 30 min. Besides, the “PAMPA Permeability (×10^6 cm/s)” value in series [2] is recorded as <12.3 ×10^6 cm/s. In addition, the EC50 in series [3] was found to be 489 nM; in series [5] it was 1050 nM. Moreover, the “Sol @ pH 7.4 (ug/mL)” value in series [4] stood at 1.4 ug/mL.

The values above are taken from patent US11753408B2, “Compounds and method for blocking transmission of malarial parasite” (The United States of America, as represented by the …, priority 2016, dated 2023).
